Source: ChEMBL document CHEMBL4706616, “Design, synthesis, and evaluation of substituted 2-acylamide-1,3-benzo[d]zole analogues as agents against MDR- and XDR-MTB” (Eur J Med Chem, 2021)
Values after ≈ are worked out from the molar mass of the structure shown.

How the values were obtained:
[1] = tested on: Mycobacterium tuberculosis; test: Antitubercular activity against isoniazid/rifampicin multidrug-resistant Mycobacterium tuberculosis FJ05120 clinical isolates assessed as bacterial growth inhibition by MABA; assay type: functional
[2] = tested on: Mycobacterium tuberculosis; test: Antitubercular activity against isoniazid/rifampicin/streptomycin/capreomycin/ofloxacin extensively drug-resistant Mycobacterium tuberculosis FJ05195 clinical isolates assessed as bacterial growth inhibition by MABA; assay type: functional

SMILES	MIC [1] [µM]	MIC [2] [µM]
COC(=O)c1ccc2oc(NC(=O)c3snnc3C)nc2c1	1.57 (≈ 0.5 µg/mL)	3.14 (≈ 1 µg/mL)
Cc1nnsc1C(=O)Nc1nc2cc(N3CCOCC3)ccc2o1	23.2 (≈ 8 µg/mL)	23.2 (≈ 8 µg/mL)
Cc1nnsc1C(=O)Nc1nc2cc(-c3cnn(C)c3)ccc2o1	0.73 (≈ 0.248 µg/mL)	1.47 (≈ 0.5 µg/mL)
Cc1ccc2oc(NC(=O)c3snnc3C)nc2c1	7.29 (≈ 2 µg/mL)	7.29 (≈ 2 µg/mL)
COC(=O)c1ccc(-c2ccc3oc(NC(=O)c4snnc4C)nc3c2)cc1	0.63 (≈ 0.248 µg/mL)	0.63 (≈ 0.248 µg/mL)
CN[C@@H]1[C@H](O[C@H]2[C@H](O[C@H]3[C@H](O)[C@@H](O)[C@H](N=C(N)N)[C@@H](O)[C@@H]3N=C(N)N)O[C@@H](C)[C@]2(O)C=O)O[C@@H](CO)[C@H](O)[C@H]1O [STREPTOMYCIN]	< 0.69	87.8 (≈ 51.1 µg/mL)
Cc1nnsc1C(=O)Nc1nc2cc(-c3cccnc3)ccc2o1	1.48 (≈ 0.499 µg/mL)	2.96 (≈ 0.999 µg/mL)
Cc1nnsc1C(=O)Nc1nc2cc(Cl)ccc2o1	1.7 (≈ 0.501 µg/mL)	1.7 (≈ 0.501 µg/mL)
Cc1nnsc1C(=O)Nc1nc2c(ccc3cccnc32)o1	6.42 (≈ 2 µg/mL)	25.7 (≈ 8 µg/mL)
O=C(Nc1nc2ccccc2o1)c1ccc(Cl)s1	14.3 (≈ 4 µg/mL)	14.3 (≈ 4 µg/mL)
Cc1nnsc1C(=O)Nc1nc2cc(C(C)(C)C)ccc2o1	0.4 (≈ 0.127 µg/mL)	0.4 (≈ 0.127 µg/mL)
O=C(Nc1nc2ccccc2o1)c1cccs1	32.8 (≈ 8 µg/mL)	32.8 (≈ 8 µg/mL)
Cc1nnsc1C(=O)Nc1nc2c(-c3ccccn3)cccc2o1	23.7 (≈ 8 µg/mL)	47.4 (≈ 16 µg/mL)
Cc1nnsc1C(=O)Nc1nc2cc(Br)ccc2o1	1.47 (≈ 0.499 µg/mL)	1.47 (≈ 0.499 µg/mL)
Cc1nnsc1C(=O)Nc1nc2ccccc2[nH]1	30.9 (≈ 8 µg/mL)	30.9 (≈ 8 µg/mL)
O=C(Nc1nc2ccccc2o1)c1ccco1	70.1 (≈ 16 µg/mL)	35.1 (≈ 8 µg/mL)
Cc1nnsc1C(=O)Nc1nc2cc(F)ccc2o1	0.45 (≈ 0.125 µg/mL)	1.8 (≈ 0.501 µg/mL)

SMILES	MIC [1] [µM]	MIC [2] [µM]
O=C(Nc1nc2ccccc2o1)c1ccccc1	537 (≈ 128 µg/mL)	537 (≈ 128 µg/mL)
Cc1nnsc1C(=O)Nc1nc2ccc(Cl)cc2o1	0.42 (≈ 0.124 µg/mL)	0.85 (≈ 0.251 µg/mL)
Cc1nnsc1C(=O)Nc1nc2c(ccc3ccccc32)o1	103 (≈ 32 µg/mL)	103 (≈ 32 µg/mL)
NNC(=O)c1ccncc1 [ISONIAZID]	7.29 (≈ 1 µg/mL)	29.2 (≈ 4 µg/mL)
CC[C@@H](CO)NCCN[C@@H](CC)CO [ETHAMBUTOL]	4.89 (≈ 0.999 µg/mL)	39.2 (≈ 8 µg/mL)
Cc1nnsc1C(=O)Nc1nc2c(Oc3ncccn3)cccc2o1	5.64 (≈ 2 µg/mL)	2.82 (≈ 0.999 µg/mL)
CO[C@H]1/C=C/O[C@@]2(C)Oc3c(C)c(O)c4c(O)c(c(/C=N/N5CCN(C)CC5)c(O)c4c3C2=O)NC(=O)/C(C)=C\C=C\[C@H](C)[C@H](O)[C@@H](C)[C@@H](O)[C@@H](C)[C@H](OC(C)=O)[C@@H]1C [RIFAMPIN]	> 311	> 311
Cc1nnsc1C(=O)Nc1nc2cc(-c3ccncc3)ccc2o1	0.74 (≈ 0.25 µg/mL)	1.48 (≈ 0.499 µg/mL)
Cc1nnsc1C(=O)Nc1nc2ccc(C(C)(C)C)cc2o1	6.32 (≈ 2 µg/mL)	6.32 (≈ 2 µg/mL)
Cc1nnsc1C(=O)Nc1nc2c(ccc3ncccc32)o1	25.7 (≈ 8 µg/mL)	25.7 (≈ 8 µg/mL)
Cc1nnsc1C(=O)Nc1nc2cc(-c3ccccn3)ccc2o1	0.37 (≈ 0.125 µg/mL)	0.37 (≈ 0.125 µg/mL)
Cc1nnsc1C(=O)Nc1nc2ccccc2o1	0.48 (≈ 0.125 µg/mL)	0.48 (≈ 0.125 µg/mL)
Cc1nnsc1C(=O)Nc1nc2c(Br)cccc2o1	0.74 (≈ 0.251 µg/mL)	0.74 (≈ 0.251 µg/mL)
Cc1nnsc1C(=O)Nc1nc2ncccc2o1	3.83 (≈ 1 µg/mL)	7.66 (≈ 2 µg/mL)
Cc1nnsc1C(=O)Nc1nc2c(OCc3ccccn3)cccc2o1	2.72 (≈ 0.999 µg/mL)	5.44 (≈ 2 µg/mL)
Cc1nnsc1C(=O)Nc1nc2ccccc2s1	57.9 (≈ 16 µg/mL)	57.9 (≈ 16 µg/mL)
